# Patent US20210017492A1, “USE OF RETINOIC ACID IN T-CELL MANUFACTURING” (Immatics US, Inc., priority 2019, published 2021)
# “Also recorded” adds a separate entry of the source. Read-outs that look alike come from different tables or passages of the source.
# Legend:
# [1] = system: T cells
# Description: On Day 3, cells were fed with media containing IL-7 and IL-15. On Day 6, cells were harvested and about half of cells were cryopreserved. The other half of cells were transferred to G-Rex 6-well plate, to which 10 ml of fresh medium was added without RA (Group 1) or with RA (100 nM/ml) (Group 2). Some Day 6 cells were analysed by flow cytometry to assess transduction efficiency. On Day 8, remaining cells were harvested and cryopreserved.
# [2] = system: T cells; assay: Flow cytometry staining of Day 6 cells for expression of the transduced TCR (PRAME dextramer); assay type: cell-based, human
# Description: Flow cytometry staining was performed on Day 6 cells to assess the expression of TCR.
# [3] = Day 6 or Day 8 cells untreated or treated with RA, data not shown
# [4] = Day 6 or Day 8 cells, Wilcoxon test
# [5] = Day 6 or Day 8 cells, data not shown
# [6] = RA-treated Day 6 T cell products
# [7] = RA-treated Day 8 T cell products
smiles,measurement,setting,value
"CC1=C(/C=C/C(C)=C/C=C/C(C)=C/C(=O)O)C(C)(C)CCC1 [RA, all-trans-retinoic acid]",CD38 expression on RA-treated CD8+ T cells,[1],expressed on all RA-treated CD8+ T cells
same,RA-treated CD103+ cells that also express CCR9,[1],almost all
same,effect of RA treatment on CD45RA+ CD3+CD8+ T cells,[1]; 1-way ANOVA on 3 data sets,significantly decreases
same,effect of RA treatment on transitional CD3+CD8+ T cells,[1]; 1-way ANOVA on 3 data sets,significantly decreases
same,effect of RA treatment on CD45RO+ T cells,"[1]; 1-way ANOVA on 3 data sets, CD3+CD8+ T cells",significantly increases
same,"CD25+ cells, with vs without RA treatment","[1]; Day 6 or Day 8 T cell products, Paired t-test",does not impact; also recorded: no significant difference
same,"CD73, untreated or treated with RA",[1]; Day 6 or Day 8 cells,no difference was observed between Day 6 or Day 8 cells
same,"CD95, untreated or treated with RA",[1]; Day 6 or Day 8 cells,no difference was observed between Day 6 or Day 8 cells
same,CD73 positive cells,[1]; [3],"untreated or treated with RA (<5% positive, data not shown)"
same,CD95 positive cells,[1]; [3],"untreated or treated with RA (>90% positive, data not shown)"
same,"CD27+ cells, treated vs untreated",[1]; [4],no significant difference; also recorded: No difference was seen between treated and untreated and
same,"CD28+ cells, treated vs untreated",[1]; [4],no significant difference; also recorded: No difference was seen between treated and untreated and
same,"CD39+ cells, untreated or treated with RA",[1]; [4],no significant difference; also recorded: no difference was observed between Day 6 or Day 8 cells
same,"CXCR4+ cells, untreated or treated with RA",[1]; [4],no significant difference; also recorded: no difference was observed between Day 6 or Day 8 cells
same,"HLA-DR+ cells, untreated or treated with RA",[1]; [4],no significant difference; also recorded: no difference was observed between Day 6 or Day 8 cells
same,"CD56 (NK-related marker), treated vs untreated",[1]; [5],No difference was seen between treated and untreated and
same,"CD94 (NK-related marker), treated vs untreated",[1]; [5],No difference was seen between treated and untreated and
same,"CD314 (NK-related marker), treated vs untreated",[1]; [5],No difference was seen between treated and untreated and
same,effect of RA treatment on Tcm,[1]; FIG. 10,increases
same,effect of RA treatment on Tem,[1]; FIG. 10,little effect
same,effect of RA treatment on Temra,[1]; FIG. 10,little effect
same,effect of RA treatment on naïve/Tscm,[1]; FIG. 10,significantly decreases
same,"CD103 expression, with vs without RA treatment",[1]; FIG. 19B,does not significantly affect
same,CD45RO+ T cells,[1]; [6],80.3%
same,CD62L+ T cells,[1]; [6],7.74%
same,naïve/Tscm (CD45RA+CD197+),[1]; [6],6.07%
same,CD45RO+ T cells,[1]; [7],84.5%
same,CD62L+ T cells vs without RA treatment,[1]; [7],significantly fewer
same,naïve/Tscm (CD45RA+CD197+),[1]; [7],4.25%
same,"CCR9+ cells, with vs without RA treatment","[1]; Wilcoxon test, p=0.0313",significantly increases
same,"CD25+ cells, Day 8 RA-treated vs Day 6 T cell products without RA treatment","[1]; Wilcoxon test, p=0.0313",significantly fewer
same,"CD38+ cells, with vs without RA treatment","[1]; Wilcoxon test, p=0.0313",significantly increases
same,CD38 MFI (Mean Fluorescence Intensity) in CD8+ T cells vs without RA treatment,"[1]; Wilcoxon test, p=0.0313",higher
same,"CD49a+ cells, with vs without RA treatment","[1]; Wilcoxon test, p=0.0313",significantly increases
same,"CD69+ cells, with vs without RA treatment","[1]; Wilcoxon test, p=0.0313",significantly increases
same,"ICOS+ cells, with vs without RA treatment","[1]; Wilcoxon test, p=0.0313",lower levels; also recorded: significantly decreases
same,"α4β7+ cells, with vs without RA treatment","[1]; Wilcoxon test, p=0.0313, α4+ and β7+ detected separately",significantly increases
same,CD197+ cells,[1]; between Day 6 and Day 8 T cell products with or without RA treatment,no significant difference
same,"CCR6, effect of RA treatment",[1]; data not shown,to low frequency and no differences (data not shown)
same,expression of CCR9 on DEX+CD3+CD8+α4β7+ cells vs without RA treatment,[1]; p=0.0313,significantly higher
same,α4β7 expression in CD3+CD8+DEX+ cells vs without RA treatment,[1]; p=0.0313,significantly higher
same,α4β7+ cells present in CD3+CD8+DEX+ cells,"[1]; with RA treatment, CD49d (α4) and β7",54.6%
same,"% CD3+ of live lymphocytes, with vs without RA",[2]; Donor 1,comparable
same,"% CD8+ of live CD3+ cell, with vs without RA",[2]; Donor 1,comparable
same,% of CD8+ cells expressing the transduced TCR,"[2]; Donor 1, with RA treatment (ATRA 100 nM/ml)",32.9%
same,"% CD3+ of live lymphocytes, with vs without RA",[2]; Donor 2,comparable
same,"% CD8+ of live CD3+ cell, with vs without RA",[2]; Donor 2,comparable
same,% of CD8+ cells expressing the transduced TCR,"[2]; Donor 2, with RA treatment (ATRA 100 nM/ml)",13.3%
